From patent US20170049739A1, “PROSTACYCLIN COMPOUNDS, COMPOSITIONS AND METHODS OF USE THEREOF” (INSMED INCORPORATED, priority 2013, published 2017)
“Also recorded” adds a separate entry of the source.

Experiments:
[1] = test system: esterase; assay: Esterase mediated conversion of treprostinil compounds to treprostinil; type: in vitro ADME; settings: 37° C., up to 1 hr
Method: A set of studies was conducted to determine the conversion kinetics to treprostinil of linear treprostinil compounds versus various branched treprostinil compounds. 0.4 mM of linear C8-TR or branched treprostinil compounds 2-dimethyl-1-propanyl-TR, 3,3-dimethyl-1-butanyl-TR, 2-ethyl-1-butanyl-TR, 5-nonanyl-TR, or 3-pentanyl-TR (see below for structures) were incubated with 0.2 U esterase at 37° C. for 1 hour, and the conversion (% of total) was calculated at 0.25, 0.5, 0.75, or 1 hour incubation time. • C8-TR (i.e., the compound of Formula (A) wherein R2=
The conversion is relative to the C8-TR compound and conversion was measured at 1 hr. post esterase incubation, • C8-TR (i.e., the compound of Formula (A) wherein R2=
Conversion was measured at 1 hr. post esterase incubation. • 4C7-TR (i.e., the compound of Formula (A) wherein R2=

[2] = target: T1, EP2 prostanoid receptor (Homo sapiens, UniProt P43116); assay: GloSensor cAMP assay in CHO-K1 cells co-transfected with the EP2 receptor; type: cell-based
T1 construct: host or cells: CHO-K1 cells, transiently co-transfected with pGloSensor-22F cAMP plasmid and pGEM-3Zf(+)
Excerpt: cAMP is a second messenger involved in signal transduction of G-protein coupled receptors (GPCRs) acting through Ga-s and Ga-i proteins. Because the treprostinil receptor is a GPCR, the assay provides an indication of whether the respective prostacyclin compound (or metabolite thereof) binds its receptor and activates the GPCR cell signaling cascade. The GloSensorTM assay harnesses a genetically modified form of firefly luciferase into which a cAMP-binding protein moiety has been inserted. Upon binding of cAMP, a conformational change is induced leading to increased light output. The EP2 prostanoid receptor was co-transfected with the GloSensorTM plasmid (Promega) into CHG-K1 cells as follows. CHO-K1 cells were harvested when the monoloayer was at 50-90% confluence. First, cells were washed with 5 mL PBS. […] The media was aspirated, and the cell pellet was resuspended in 10 mL of growth media. Cell number was determined using a hemacytometer. Each well of a culture treated 96 […] bottom plate (Costar, Cat #: 3917) was seeded with 1×10^4 cells per 100 μL antibiotic-free growth media. […] For small scale transfections of up to 20 wells, the pGLoSensor-22F cAMP plasmid (Promega, Cat #: E2301) (2 μg): (EP2) (10 ng) (Origene, Cat #: SC126558) : pGEM-3Zf(+) (10 ng) (Promega, Cat #: P2271) ratio was diluted to a final concentration of 12.6 ng/μL (total plasmid) in Opti-MEM I reduced-serum medium (Life Technologies, Cat #: 1985062). Next, 6 μL of FuGENE HD transfection reagent (Promega, Cat #: E2311) was added to 160 μL of diluted plasmid and mixed carefully by gentle pipetting. The complex was incubated at room temperature for 0 to 10 minutes, and then 8 μL of the complex was added per well of a 96 well white assay plate (Costar, Cat #: 3917) and gently mixed without disturbing the cell monolayer. […] Following incubation, cells were treated and analyzed. For larger scale transfections, the aforementioned steps were scaled up accordingly, and cells were frozen following the last incubation. In order to prepare frozen transfected CHO-K1 cells, the media was aspirated from culture flasks and cells were rinsed with 5 mL PBS. […] Cell number was determined using a hemacytometer. The media was aspirated, and the cell pellet was resuspended in freezing media (Millipore, cat #: S-002-5F) at 2.5×10^6 cells/vial. Transfected cells were incubated overnight at -80° C. before transfer to liquid nitrogen for long term storage. […] In preparation for cAMP measurement, the cells were equilibrated with the GloSensor cAMP reagent prior to treatment. For equilibration, the medium was carefully removed from the individual well. Next, 100 μL of equilibration medium (6% v/v of Glosensor Reagent stock solution (Promega, Cat #: E291), 10% FBS (Hyclone, Cat #: SH30071.03) and 88% CO2 independent medium (Life Technologies, Cat #: 18045088)) was added per well of the 96-well plate, and added to the side of each well. The plate was then incubated for 2 hours at room temperature. A first pre-read measurement was taken using a microplate reader (MicroLumat Plus). Plates were incubated for an additional 10 minutes at room temperature, followed by a second pre-read measurement. […] Following treatment, each plate was read every 5 minutes for the duration of the assay using a microplate reader (MicroLumat Plus). In order to determine the fold change in cAMP relative to the control, the transfection efficiency was first determined by dividing the second pre-read measurement by the average of the corresponding pre-read measurements. Next, the normalized relative light units (RLUs) of the samples were determined by dividing the plate read measurement by the transfection efficiency. The fold change in cAMP relative to the control was then determined by dividing the normalized RLU of the samples by the normalized RLU of the control. […] Results from the three highest concentrations are provided at FIG. 3A (10 μM), FIG. 3B (1 μM) and FIG. 3C (0.1 μM). […]

[3] = test system: CHO-K1 cells; assay: CHO-K1 cell proliferation assay; settings: unformulated alkyl esters, 48 hour incubation; for Effect on cell proliferation: concentration with detectable inhibition: 0.195 μM-25 μM
Method: CHG-K1 cells were harvested when the cell monolayer was 50-90% confluent (use passage 4-11). Media was aspirated out of the flask, and cells were rinsed with 2 mL of F12 media. Next, 1 mL of pre-warmed (37° C.) 0.25%o trypsin-EDTA (Life Technologies, Cat#: 25300054) was added, and cells were dislodged from the flask by tapping it on the side. Complete growth media (F12 (Life Technologies, Cat #: 31765092) +10%FBS (Hyclone, Cat #: SH30071.03)+1× Pen-Strep (Life Technologies, cat #15140-122) was then added at a volume of 10 mL. Cells were eentrifuged at 250×g for 5 minutes at room temperature, and the media was aspirated. The cell pellet was resuspended in 10 ml. complete growth media. Cell number was determined using a hemacytometer. Ceils were then seeded at 2000 cells per well of a 96-well plate in 100 μL of complete growth media. The plate was incubated overnight at 37° C. and 5% CO2 in a water-jacketed incubator.
The next day, 80 μL of fresh complete media was added to each well, and CHO—K1 cells were challenged with treprostinil compound and composition treatments. The working solutions were prepared at 10× concentration, and following 2 fold serial dilutions, 20 μL aliquots were added per well to arrive at a final 1× concentration. Following a 48 hour incubation at 37° C. and 5% CO2 in a water-jacketed incubator, the inhibitory effect on cell proliferation was determined. Plates were analyzed using 20 μL of Presto Blue reagent (Life Technologies, cat #: A13262) per well. The reagent was mixed, and plates were incubated for 1 hour at 37° C. and 5% CO2 in a water-jacketed incubator. Plates were read using either a CytoFluor Series 4000 (PerSeptive BioSystems) or Synergy Neo microplate reader (BioTek) with emission λ: 590 nm and excitation λ: 560 nm.
Following a 48 hour incubation period, the inhibitory effect of the treprostinil derivative compositions on cell proliferation was determined.
CHO—K1 cells were challenged with treprostinil alkyl esters, i.e., TR compounds of Formula (A), having the following R2 groups: • C2, C3, C4, C5, C6, C8, C10 or C12 straight chain alkyl, at dosages ranging from 0.098 μM to 25 μM, Following a 48 hour incubation period, the inhibitory effect on cell proliferation was determined.
Following a 72 hour incubation period, the inhibitory effect on cell proliferation was determined. Following a 48 hour incubation period, the inhibitory effect on cell proliferation was determined.
Similarly, CHG-K1 cells were challenged with the treprostinil compositions T612 (R2═C2), T613 (R2═C8) at concentrations ranging from 1.41 μM to 180 μM.

[4] = test system: NR8383 cells; assay: NR8383 cell proliferation assay; type: cell-based, rat; settings: unformulated alkyl esters, 72 hour incubation; for Effect on cell proliferation: 0.195 μM-25 μM
Method: Rat alveolar NR8383 cells were harvested when the monolayer was 50-90% confluent (use passage 5-11). Because the NR8383 cells include both adherent and non-adherent cells, media was transferred to a 50 mL Falcon tube. To obtain the cells remaining in the flask, 2 mL of plain media was added, and the remaining cells were scraped out of the 75 cm^2 flask with a cell scraper and added to the 50 mL tube. […] SH30071.03) […] Technologies, cat #: 15410-122)). Cell number was determined using a hemacytometer. […] Measurements and calculations were made as described above for the CHO-K1 cells.

[5] = Particle size characterization of treprostinil compositions (QELS); type: physicochemical; settings: particles of compositions comprising the alkyl ester (FIG. 2)
Method: All particle size measurements were performed using a Wyatt Technology Mobius™ Zeta Potential/ Particle Sizing Instrument in Quasi-elastic light scattering (QELS) mode. Composition aiiquots were diluted 10-fold in pre-filtered (0.02 μm pore filter) ultrapure of deionized H2O. Light scattering data was collected and converted into particle size and size distribution using Dynamics® v. […] Reported average particle size diameter is based on the cumulants model, which mathematically fits particle diffusion constants (determined by the raw scattering intensities of particles in a suspension) to obtain the particle size mean and a distribution of particle sizes around the mean diameter.
Particle uniformity was determined using the software-calculated polydispersity (% PD). Polydispersity is defined as the standard deviation of the particle size distribution from the mean particle size value. % PD normalizes the polydispersity to the mean diameter by dividing by the mean size and multiplylng by 100. These parameters indicate whether a particle suspension has one or more size populations of particles (monomodal versus multimodal). […]
Dynamics® polydispersity parameter represents a monodisperse population of particles if % PD≦15. A calculated % PD≧57% represents a polydisperse population of particles.

T1 sequence (P43116 whole entry): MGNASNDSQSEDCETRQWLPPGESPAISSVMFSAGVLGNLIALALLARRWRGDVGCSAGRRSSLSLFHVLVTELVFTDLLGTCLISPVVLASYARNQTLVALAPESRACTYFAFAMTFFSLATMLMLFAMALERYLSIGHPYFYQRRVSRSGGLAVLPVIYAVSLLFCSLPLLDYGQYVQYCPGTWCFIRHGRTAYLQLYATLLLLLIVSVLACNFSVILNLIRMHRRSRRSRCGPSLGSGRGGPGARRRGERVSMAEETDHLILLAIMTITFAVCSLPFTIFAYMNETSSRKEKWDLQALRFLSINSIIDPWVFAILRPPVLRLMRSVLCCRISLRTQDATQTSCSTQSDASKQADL

Compound	esterase mediated conversion rate compared with other compounds [1]	Effect on cell proliferation: concentration with detectable inhibition [3]	Effect on cell proliferation [4]	further results
CCCCC[C@H](O)CC[C@@H]1[C@H]2Cc3cccc(OCC(=O)OC(CCC)CCC)c3C[C@H]2C[C@H]1O [4C7-TR]	slower conversion rate than the linear compound C8-TR			
CCCCCC(O)CCC1C(O)CC2Cc3c(cccc3OCC(=O)OC(CCC)CCCC)CC21 (stereo not shown) [4C8-TR]	slower conversion rate than the linear compound C8-TR; also recorded: slower conversion rate than the symmetrical compounds			
CCCCC[C@H](O)CC[C@@H]1[C@H]2Cc3cccc(OCC(=O)OC(CCCC)CCCC)c3C[C@H]2C[C@H]1O [5C9-TR, 5-nonanyl treprostinil]	slower conversion rate than the linear compound C8-TR			esterase mediated conversion rate compared with other compounds ([1]; listed as 5-nonanyl-TR): slower conversion rate than linear C8-TR; change of potency with incubation time / release profile ([2]; dose response curves at 0.5 to 8 hr incubation): increases with incubation time; also recorded: delayed release profile; ranking of activity of the treprostinil compounds ([2]; unformulated compounds, 10 μM and 5 μM, FIG. 21): C12-TR>C14-TR>5-nonanyl-TR>C16-TR
CCCCCC[C@@H](C)OC(=O)COc1cccc2c1C[C@H]1C[C@@H](O)[C@H](CC[C@@H](O)CCCCC)[C@H]1C2 [(R)-2C8-TR]	no significant difference between the conversion rates of R and S isomers			
CCCCCC[C@H](C)OC(=O)COc1cccc2c1C[C@H]1C[C@@H](O)[C@H](CC[C@@H](O)CCCCC)[C@H]1C2 [(S)-2C8-TR]	no significant difference between the conversion rates of R and S isomers			
CCCCC[C@H](O)CC[C@@H]1[C@H]2Cc3cccc(OCC(=O)OCC)c3C[C@H]2C[C@H]1O [C2-TR, treprostinil ethyl ester]		No detectable cell inhibition	No detectable cell inhibition	
CCCCC[C@H](O)CC[C@@H]1[C@H]2Cc3cccc(OCC(=O)OCCC)c3C[C@H]2C[C@H]1O [C3-TR]		No detectable cell inhibition	No detectable cell inhibition	
CCCCC[C@H](O)CC[C@@H]1[C@H]2Cc3cccc(OCC(=O)OCCCC)c3C[C@H]2C[C@H]1O [C4-TR]		No detectable cell inhibition	No detectable cell inhibition	
CCCCCCOC(=O)COc1cccc2c1C[C@H]1C[C@@H](O)[C@H](CC[C@@H](O)CCCCC)[C@H]1C2 [C6-TR]		No detectable cell inhibition	No detectable cell inhibition	
CCCCCCCCOC(=O)COc1cccc2c1C[C@H]1C[C@@H](O)[C@H](CC[C@@H](O)CCCCC)[C@H]1C2 [C8-TR, treprostinil octyl ester]		25 µM		inhibition of cell proliferation at the highest concentration [3]: showed inhibition of cell proliferation; inhibition of cell proliferation at the highest concentration [4]: showed some inhibition of cell proliferation
treprostinil decyl ester [C10-TR]				polydispersity (% PD) [5]: around 15 % PD; duration of cAMP levels ([2]; 5 μM, FIG. 4 and FIG. 5): sustained significantly longer than free treprostinil; cAMP levels compared with free treprostinil ([2]; 10 μM, FIG. 3A): equivalent to free treprostinil; time for which cAMP level was sustained ([2]; 10 μM, FIG. 3A): at least 6 hours; cAMP response compared with free treprostinil ([2]; compositions, 5 μM, FIG. 4): greater than or equivalent to the response induced by free treprostinil; cAMP response levels of unformulated compounds ([2]; unformulated alkyl esters, 5 μM, FIG. 5): equivalent to free treprostinil
